According to patent publication US20090131468A1, “Bis-(Sulfonylamino) Derivatives in Therapy 065” (AstraZeneca AB, priority 2007, published 2009):
pIC50: −log10 of the molar value.

target: T1, human mPGES-1 (Homo sapiens, UniProt O14684); assay: Microsomal prostaglandin E synthase biochemical assay; conditions: microsome preparation containing human mPGES-1; PGH2 10.8 μM, GSH 2.5 mM, pH 6.8; PGE2 quantified by HTRF; average of at least n=2
T1 sequence (O14684 1-152): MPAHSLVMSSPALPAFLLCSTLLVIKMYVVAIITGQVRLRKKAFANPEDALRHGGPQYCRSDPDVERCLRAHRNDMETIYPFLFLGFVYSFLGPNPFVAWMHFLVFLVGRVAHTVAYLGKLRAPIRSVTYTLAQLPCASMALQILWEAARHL
Method: Compounds were tested as inhibitors of microsomal prostaglandin E synthase activity in microsomal prostaglandin E synthase assays and whole cell assays. These assays measure prostaglandin E2 (PGE2) synthesis which is taken as a measure of prostaglandin E synthase activity. Microsomal prostaglandin E synthase biochemical assays used microsomal prostaglandin E synthase-1 in microsomal preparations. The source of the microsomes can be for example interleukin-1β-stimulated human A549 cells (which express human mPGES-1) or Sf9 cells transfected with plasmids encoding human mPGES-1 cDNA.
A solution of test compound was added to a diluted microsome preparation containing human mPGES-1 and pre-incubated for 15 minutes in potassium phosphate buffer pH 6.8 with cofactor glutathione (GSH). Corresponding solutions without test compound were used as positive controls, and corresponding solutions without test compound and without microsomes were used as negative controls. The enzymatic reaction was then started by addition of the substrate PGH2 in an organic solution (dry acetonitrile).
The reaction was stopped after one minute by adding an acidic solution (pH 1.9) of ferric chloride and citrate (final concentrations 7 mM and 47 mM respectively), by which the PGH2 was sequestered (the PGH2 is reduced to mainly 12-hydroxy heptadecatrineoic acid (12-HHT) which is not detected by the subsequent PGE2 detection step). The resulting solution was then pH neutralized by addition of potassium phosphate buffer, prior to diluting an aliquot of the resulting solution in a weak potassium phosphate buffer (50 mM, pH 6.8) containing 0.2% BSA (w/v). […] The PGE2 formed was quantified by use of a commercial HTRF based kit (catalogue #62PG2PEC or #62P2APEC from Cisbio International). 100% activity was defined as the PGE2 production in positive controls subtracted by the PGE2 production in the negative controls. IC50 values were then determined using standard procedures.

SMILES	pIC50
NS(=O)(=O)c1ccccc1S(=O)(=O)NC(=O)c1ccc2oc(C3(O)CCCC3)cc2c1 [Example 77, 2-(1-Hydroxycyclopentyl)-N-(2-sulfamoylphenylsulfonyl)benzofuran-5-carboxamide]	6.14
NS(=O)(=O)c1ccccc1S(=O)(=O)NC(=O)c1ccc2oc(C3CCCC3)cc2c1 [Example 78, 2-Cyclopentyl-N-(2-sulfamoylphenylsulfonyl)benzofuran-5-carboxamide]	5.24
NS(=O)(=O)c1ccccc1S(=O)(=O)NC(=O)c1ccc(Cl)cc1O [Example 81, 4-Chloro-2-hydroxy-N-(2-sulfamoylphenylsulfonyl)benzamide]	6.00
NS(=O)(=O)c1ccccc1S(=O)(=O)NC(=O)c1ccc(Br)cc1O [Example 82, 4-Bromo-2-hydroxy-N-(2-sulfamoylphenylsulfonyl)benzamide]	6.27
CC(C)(C)C#Cc1ccc(C(=O)NS(=O)(=O)c2ccccc2S(N)(=O)=O)c(F)c1 [Example 84, 4-(3,3-Dimethylbut-1-ynyl)-2-fluoro-N-(2-sulfamoylphenylsulfonyl)benzamide]	6.77
CC(C)(C)C#Cc1ccc(C(=O)NS(=O)(=O)c2ccccc2S(N)(=O)=O)nc1 [Example 89, 5-(3,3-Dimethylbut-1-ynyl)-N-(2-sulfamoylphenylsulfonyl)picolinamide]	5.92
COc1c(C#CC(C)(C)C)ccc(C(=O)NS(=O)(=O)c2ccccc2S(N)(=O)=O)c1F [Example 90, 4-(3,3-Dimethylbut-1-ynyl)-2-fluoro-3-methoxy-N-(2-sulfamoylphenylsulfonyl)-benzamide]	6.59
NS(=O)(=O)c1ccccc1S(=O)(=O)NC(=O)c1ccc(C#Cc2ccccn2)nc1 [Example 94, 6-(Pyridin-2-ylethynyl)-N-(2-sulfamoylphenylsulfonyl)nicotinamide]	4.89
NS(=O)(=O)c1ccccc1S(=O)(=O)NC(=O)c1ccc(C#Cc2cccnc2)nc1 [Example 95, 6-(Pyridin-3-ylethynyl)-N-(2-sulfamoylphenylsulfonyl)nicotinamide]	5.70
CC(C)(C)C#Cc1ncc(C(=O)NS(=O)(=O)c2ccccc2S(N)(=O)=O)cn1 [Example 96, 2-(3,3-Dimethylbut-1-ynyl)-N-(2-sulfamoylphenylsulfonyl)pyrimidine-5-carboxamide]	5.77
NS(=O)(=O)c1ccccc1S(=O)(=O)NC(=O)c1ccc(COCCC(F)(F)F)cc1 [Example 97, N-(2-Sulfamoylphenylsulfonyl)-4-((3,3,3-trifluoropropoxy)methyl)benzamide]	5.29
CC(C)C#Cc1ccc(C(=O)NS(=O)(=O)c2ccccc2S(N)(=O)=O)cn1 [Example 99, 6-(3-Methylbut-1-ynyl)-N-(2-sulfamoylphenylsulfonyl)nicotinamide]	6.40
NS(=O)(=O)c1ccccc1S(=O)(=O)NC(=O)[C@H]1CC[C@@H](c2cc3ccccc3o2)CC1 [Example 105, (1s,4s)-4-(Benzofuran-2-yl)-N-(2-sulfamoylphenylsulfonyl)cyclohexanecarboxamide]	5.68

Stronger by pIC50, values ahead:

pIC50	SMILES
6.96	CC(C)(C)c1cc2cc(C(=O)NS(=O)(=O)c3ccccc3S(N)(=O)=O)ccc2o1 [Example 76, 2-tert-Butyl-N-(2-sulfamoylphenylsulfonyl)benzofuran-5-carboxamide]
7.15	CC(C)(C)C#Cc1ccc(C(=O)NS(=O)(=O)c2ccccc2S(N)(=O)=O)cc1C#N [Example 79, 3-Cyano-4-(3,3-dimethylbut-1-ynyl)-N-(2-sulfamoylphenylsulfonyl)benzamide]
6.89	N#Cc1cc(C(=O)NS(=O)(=O)c2ccccc2S(N)(=O)=O)ccc1-c1cc2ccccc2o1 [Example 80, 4-(Benzofuran-2-yl)-3-cyano-N-(2-sulfamoylphenylsulfonyl)benzamide]
7.38	NS(=O)(=O)c1ccccc1S(=O)(=O)NC(=O)c1ccc(-c2cc3ccccc3o2)cc1F [Example 83, 4-(Benzofuran-2-yl)-2-fluoro-N-(2-sulfamoylphenylsulfonyl)benzamide]
7.31	NS(=O)(=O)c1ccccc1S(=O)(=O)NC(=O)c1ccc(C#CC2CCCC2)cc1F [Example 85, 4-(Cyclopentylethynyl)-2-fluoro-N-(2-sulfamoylphenylsulfonyl)benzamide]
7.15	COc1c(C#CC2CCCC2)ccc(C(=O)NS(=O)(=O)c2ccccc2S(N)(=O)=O)c1F [Example 86, 4-(Cyclopentylethynyl)-2-fluoro-3-methoxy-N-(2-sulfamoylphenylsulfonyl)benzamide]
7.80	COc1c(-c2cc3ccccc3o2)ccc(C(=O)NS(=O)(=O)c2ccccc2S(N)(=O)=O)c1F [Example 87, 4-(Benzofuran-2-yl)-2-fluoro-3-methoxy-N-(2-sulfamoylphenylsulfonyl)benzamide]
6.85	NS(=O)(=O)c1ccccc1S(=O)(=O)NC(=O)c1ccc(C#CC2CCCCC2)cn1 [Example 88, 5-(Cyclohexylethynyl)-N-(2-sulfamoylphenylsulfonyl)picolinamide]
6.92	NS(=O)(=O)c1ccccc1S(=O)(=O)NC(=O)c1ccc(-c2cc3ccccc3o2)cc1Cl [Example 91, 4-(Benzofuran-2-yl)-2-chloro-N-(2-sulfamoylphenylsulfonyl)benzamide]
7.72	NS(=O)(=O)c1ccccc1S(=O)(=O)NC(=O)c1ccc(C#CC2CCCC2)cc1O [Example 92, 4-(Cyclopentylethynyl)-2-hydroxy-N-(2-sulfamoylphenylsulfonyl)benzamide]
7.24	NS(=O)(=O)c1ccccc1S(=O)(=O)NC(=O)c1ccc(C#CC2CCCC2)nc1 [Example 93, 6-(Cyclopentylethynyl)-N-(2-sulfamoylphenylsulfonyl)nicotinamide]
6.96	NS(=O)(=O)c1ccccc1S(=O)(=O)NC(=O)c1ccc(C#CC2CCCC2)c(CO)c1 [Example 98, 4-(Cyclopentylethynyl)-3-(hydroxymethyl)-N-(2-sulfamoylphenylsulfonyl)benzamide]
7.15	NS(=O)(=O)c1ccccc1S(=O)(=O)NC(=O)c1ccc(C#Cc2ccccc2)c(CO)c1 [Example 100, 3-(Hydroxymethyl)-4-(phenylethynyl)-N-(2-sulfamoylphenylsulfonyl)benzamide]
7.32	NS(=O)(=O)c1ccccc1S(=O)(=O)NC(=O)c1ccc(C#CC2CCCCC2)c(CO)c1 [Example 101, 4-(Cyclohexylethynyl)-3-(hydroxymethyl)-N-(2-sulfamoylphenylsulfonyl)benzamide]
7.28	NS(=O)(=O)c1ccccc1S(=O)(=O)NC(=O)c1cnc(C#Cc2ccc(Cl)cc2)nc1 [Example 102, 2-((4-chlorophenyl)ethynyl)-N-(2-sulfamoylphenylsulfonyl)pyrimidine-5-carboxamide]
7.82	NS(=O)(=O)c1ccccc1S(=O)(=O)NC(=O)c1ccc(-c2cc3ccccc3o2)c(CO)c1 [Example 103, 4-(Benzofuran-2-yl)-3-(hydroxymethyl)-N-(2-sulfamoylphenylsulfonyl)benzamide]
6.85	NS(=O)(=O)c1ccccc1S(=O)(=O)NC(=O)[C@H]1CC[C@H](c2cc3ccccc3o2)CC1 [Example 106, (1r,4r)-4-(Benzofuran-2-yl)-N-(2-sulfamoylphenylsulfonyl)cyclohexanecarboxamide]
